{
  "source": "the kinase profiling compilation of Christmann-Franck et al. (2016)",
  "assay_in_all_cases": "radiometric filter-binding kinase assay",
  "key": {"MAP3K9 (human)": {"target": "MAP3K9 (human) (UniProt P80192)", "sequence (P80192 whole entry, looked up)": "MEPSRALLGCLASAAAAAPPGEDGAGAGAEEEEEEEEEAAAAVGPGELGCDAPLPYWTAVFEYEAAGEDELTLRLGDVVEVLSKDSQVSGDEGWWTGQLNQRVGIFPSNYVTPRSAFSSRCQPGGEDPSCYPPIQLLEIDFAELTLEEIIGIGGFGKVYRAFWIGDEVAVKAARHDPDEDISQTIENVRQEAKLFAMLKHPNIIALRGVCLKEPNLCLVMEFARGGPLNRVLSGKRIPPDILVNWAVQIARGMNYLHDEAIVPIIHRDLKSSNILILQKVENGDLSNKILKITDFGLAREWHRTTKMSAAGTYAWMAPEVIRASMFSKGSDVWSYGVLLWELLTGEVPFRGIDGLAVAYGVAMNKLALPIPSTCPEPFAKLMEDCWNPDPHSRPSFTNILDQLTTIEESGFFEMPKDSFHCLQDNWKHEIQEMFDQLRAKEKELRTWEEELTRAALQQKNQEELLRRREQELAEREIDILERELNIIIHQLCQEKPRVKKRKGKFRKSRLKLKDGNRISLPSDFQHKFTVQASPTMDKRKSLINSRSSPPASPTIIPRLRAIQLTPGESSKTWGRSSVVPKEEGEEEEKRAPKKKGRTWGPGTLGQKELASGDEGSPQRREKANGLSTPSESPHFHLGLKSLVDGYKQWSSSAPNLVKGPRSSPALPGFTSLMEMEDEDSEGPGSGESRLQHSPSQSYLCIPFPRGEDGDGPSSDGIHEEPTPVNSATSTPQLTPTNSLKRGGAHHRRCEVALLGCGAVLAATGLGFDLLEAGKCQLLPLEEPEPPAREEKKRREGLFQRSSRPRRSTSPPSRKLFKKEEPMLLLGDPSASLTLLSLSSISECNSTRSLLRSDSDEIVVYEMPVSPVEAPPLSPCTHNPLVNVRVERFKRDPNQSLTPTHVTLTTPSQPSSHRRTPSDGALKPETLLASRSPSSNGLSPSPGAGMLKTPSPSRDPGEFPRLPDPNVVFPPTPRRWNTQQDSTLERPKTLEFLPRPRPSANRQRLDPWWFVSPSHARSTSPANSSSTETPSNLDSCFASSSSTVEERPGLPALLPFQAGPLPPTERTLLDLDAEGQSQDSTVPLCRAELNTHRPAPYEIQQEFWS"}, "TTK (human)": {"target": "TTK (human) (UniProt P33981)"}, "MAPK9 (human)": {"target": "MAPK9 (human) (UniProt P45984)", "sequence (P45984 whole entry, looked up)": "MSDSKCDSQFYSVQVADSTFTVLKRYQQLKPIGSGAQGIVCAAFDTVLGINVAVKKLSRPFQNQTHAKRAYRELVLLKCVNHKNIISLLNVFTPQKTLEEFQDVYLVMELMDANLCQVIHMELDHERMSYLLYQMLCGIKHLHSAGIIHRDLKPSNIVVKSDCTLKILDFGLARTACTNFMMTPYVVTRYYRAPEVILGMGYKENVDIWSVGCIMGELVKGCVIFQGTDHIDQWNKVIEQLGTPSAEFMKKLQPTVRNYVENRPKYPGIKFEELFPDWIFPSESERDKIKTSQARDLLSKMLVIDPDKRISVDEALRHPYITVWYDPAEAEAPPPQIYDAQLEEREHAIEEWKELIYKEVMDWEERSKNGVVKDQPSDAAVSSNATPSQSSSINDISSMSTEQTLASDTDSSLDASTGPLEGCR"}, "MAP3K5 (human)": {"target": "MAP3K5 (human) (UniProt Q99683)"}, "GSK3B (human)": {"target": "GSK3B (human) (UniProt P49841)"}, "MARK4 (human)": {"target": "MARK4 (human) (UniProt Q96L34)"}, "PKN2 (human)": {"target": "PKN2 (human) (UniProt Q16513)", "sequence (Q16513 whole entry, looked up)": "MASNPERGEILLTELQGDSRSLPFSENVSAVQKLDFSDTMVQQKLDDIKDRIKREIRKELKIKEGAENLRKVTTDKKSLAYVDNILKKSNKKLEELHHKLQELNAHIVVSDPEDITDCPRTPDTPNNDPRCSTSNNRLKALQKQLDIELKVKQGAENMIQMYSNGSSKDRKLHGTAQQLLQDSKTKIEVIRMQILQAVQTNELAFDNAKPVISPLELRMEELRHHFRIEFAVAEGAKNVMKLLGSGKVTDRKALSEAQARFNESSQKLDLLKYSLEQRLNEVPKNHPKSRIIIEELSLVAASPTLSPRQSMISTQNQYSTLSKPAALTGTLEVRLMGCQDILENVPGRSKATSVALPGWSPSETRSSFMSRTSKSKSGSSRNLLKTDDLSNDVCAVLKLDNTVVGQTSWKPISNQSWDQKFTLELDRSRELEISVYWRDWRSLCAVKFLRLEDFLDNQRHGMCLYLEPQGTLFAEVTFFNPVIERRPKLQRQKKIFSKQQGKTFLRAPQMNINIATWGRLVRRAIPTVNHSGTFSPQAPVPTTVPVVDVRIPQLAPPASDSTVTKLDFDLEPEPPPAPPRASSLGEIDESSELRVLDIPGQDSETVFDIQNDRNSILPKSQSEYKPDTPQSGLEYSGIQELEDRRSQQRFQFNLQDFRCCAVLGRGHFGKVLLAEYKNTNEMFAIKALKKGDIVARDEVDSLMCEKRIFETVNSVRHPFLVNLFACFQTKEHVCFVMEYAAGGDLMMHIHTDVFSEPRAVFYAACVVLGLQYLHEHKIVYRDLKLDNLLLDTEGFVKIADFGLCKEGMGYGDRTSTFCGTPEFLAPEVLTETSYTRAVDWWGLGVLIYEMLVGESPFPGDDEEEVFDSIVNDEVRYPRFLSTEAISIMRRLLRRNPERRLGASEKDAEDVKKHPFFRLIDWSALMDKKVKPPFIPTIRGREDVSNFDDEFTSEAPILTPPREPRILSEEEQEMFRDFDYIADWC"}, "TAOK1 (human)": {"target": "TAOK1 (human) (UniProt Q7L7X3)"}, "AURKA (human)": {"target": "AURKA (human) (UniProt O14965)"}, "MAPK10 (human)": {"target": "MAPK10 (human) (UniProt P53779)", "sequence (P53779 whole entry, looked up)": "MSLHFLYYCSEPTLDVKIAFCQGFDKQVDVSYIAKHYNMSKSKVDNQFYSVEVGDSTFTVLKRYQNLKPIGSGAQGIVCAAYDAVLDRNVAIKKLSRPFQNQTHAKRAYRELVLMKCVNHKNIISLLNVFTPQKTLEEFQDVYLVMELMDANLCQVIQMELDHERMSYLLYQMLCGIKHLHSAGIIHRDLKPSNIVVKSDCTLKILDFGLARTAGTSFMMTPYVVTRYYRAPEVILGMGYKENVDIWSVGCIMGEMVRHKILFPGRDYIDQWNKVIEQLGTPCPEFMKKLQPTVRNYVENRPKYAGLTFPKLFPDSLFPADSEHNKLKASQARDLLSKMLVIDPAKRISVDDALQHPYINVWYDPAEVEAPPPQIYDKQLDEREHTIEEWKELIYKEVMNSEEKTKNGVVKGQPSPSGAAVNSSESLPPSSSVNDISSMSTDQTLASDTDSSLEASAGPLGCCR"}, "[1]": {"tested_on": "AKT2 (human), P31751 [S474D]"}, "YES1 (human)": {"target": "YES1 (human) (UniProt P07947)", "sequence (P07947 whole entry, looked up)": "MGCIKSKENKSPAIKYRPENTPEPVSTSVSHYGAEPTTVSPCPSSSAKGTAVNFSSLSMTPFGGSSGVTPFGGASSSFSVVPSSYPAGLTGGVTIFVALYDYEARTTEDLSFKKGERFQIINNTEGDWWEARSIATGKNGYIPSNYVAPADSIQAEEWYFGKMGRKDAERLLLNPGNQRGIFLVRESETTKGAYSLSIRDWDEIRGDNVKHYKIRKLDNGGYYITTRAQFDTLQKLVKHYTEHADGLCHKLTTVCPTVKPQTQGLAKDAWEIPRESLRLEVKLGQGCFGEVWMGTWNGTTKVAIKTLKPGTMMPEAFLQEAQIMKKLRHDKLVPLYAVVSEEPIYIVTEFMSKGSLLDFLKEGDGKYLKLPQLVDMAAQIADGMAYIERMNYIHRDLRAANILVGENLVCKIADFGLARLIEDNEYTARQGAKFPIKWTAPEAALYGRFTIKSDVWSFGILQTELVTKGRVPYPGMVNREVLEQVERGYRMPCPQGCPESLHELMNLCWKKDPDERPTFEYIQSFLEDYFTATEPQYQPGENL"}, "HIPK1 (human)": {"target": "HIPK1 (human) (UniProt Q86Z02)", "sequence (Q86Z02 whole entry, looked up)": "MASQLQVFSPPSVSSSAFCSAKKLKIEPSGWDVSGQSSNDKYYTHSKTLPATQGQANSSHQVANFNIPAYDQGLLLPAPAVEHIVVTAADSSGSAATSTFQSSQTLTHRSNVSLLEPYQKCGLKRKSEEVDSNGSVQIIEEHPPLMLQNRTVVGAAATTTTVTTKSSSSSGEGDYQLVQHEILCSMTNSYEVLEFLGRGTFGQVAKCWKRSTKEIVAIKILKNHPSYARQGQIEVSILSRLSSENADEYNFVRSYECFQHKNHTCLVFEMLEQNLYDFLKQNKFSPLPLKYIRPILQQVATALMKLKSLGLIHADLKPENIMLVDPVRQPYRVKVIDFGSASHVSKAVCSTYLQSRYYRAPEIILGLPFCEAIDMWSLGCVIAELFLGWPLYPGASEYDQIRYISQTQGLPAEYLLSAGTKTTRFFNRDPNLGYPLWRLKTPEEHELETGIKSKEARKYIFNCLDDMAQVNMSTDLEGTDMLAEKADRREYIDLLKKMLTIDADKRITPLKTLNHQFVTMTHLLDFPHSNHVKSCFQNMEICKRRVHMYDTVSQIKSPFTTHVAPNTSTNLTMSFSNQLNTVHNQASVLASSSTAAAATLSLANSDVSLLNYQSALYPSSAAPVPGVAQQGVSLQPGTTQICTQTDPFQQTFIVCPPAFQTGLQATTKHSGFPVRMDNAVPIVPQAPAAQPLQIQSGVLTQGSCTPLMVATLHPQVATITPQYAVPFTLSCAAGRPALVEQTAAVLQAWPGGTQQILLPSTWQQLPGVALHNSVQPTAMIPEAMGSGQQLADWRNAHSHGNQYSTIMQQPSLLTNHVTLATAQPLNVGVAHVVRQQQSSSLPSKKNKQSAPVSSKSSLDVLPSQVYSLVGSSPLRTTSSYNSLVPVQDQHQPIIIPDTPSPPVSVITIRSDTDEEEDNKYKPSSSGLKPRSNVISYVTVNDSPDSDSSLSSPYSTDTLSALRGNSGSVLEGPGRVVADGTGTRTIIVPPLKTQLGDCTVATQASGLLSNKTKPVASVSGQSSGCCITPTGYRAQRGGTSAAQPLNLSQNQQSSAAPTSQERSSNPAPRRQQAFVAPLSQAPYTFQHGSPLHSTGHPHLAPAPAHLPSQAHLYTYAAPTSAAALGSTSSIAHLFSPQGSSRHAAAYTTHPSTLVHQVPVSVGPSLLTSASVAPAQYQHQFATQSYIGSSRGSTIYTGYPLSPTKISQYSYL"}, "SYK (human)": {"target": "SYK (human) (UniProt P43405)"}, "HIPK2 (human)": {"target": "HIPK2 (human) (UniProt Q9H2X6)"}, "AURKB (human)": {"target": "AURKB (human) (UniProt Q96GD4)", "sequence (Q96GD4 whole entry, looked up)": "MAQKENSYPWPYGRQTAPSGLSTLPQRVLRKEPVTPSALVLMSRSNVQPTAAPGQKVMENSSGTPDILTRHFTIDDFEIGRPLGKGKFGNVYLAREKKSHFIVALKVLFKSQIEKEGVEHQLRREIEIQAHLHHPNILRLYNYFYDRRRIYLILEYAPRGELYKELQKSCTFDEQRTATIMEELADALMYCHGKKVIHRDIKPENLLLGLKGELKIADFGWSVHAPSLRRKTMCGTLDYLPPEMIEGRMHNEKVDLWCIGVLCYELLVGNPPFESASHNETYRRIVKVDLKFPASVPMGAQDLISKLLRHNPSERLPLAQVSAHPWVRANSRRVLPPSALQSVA"}, "PAK6 (human)": {"target": "PAK6 (human) (UniProt Q9NQU5)"}, "MAPK1 (human)": {"target": "MAPK1 (human) (UniProt P28482)"}},
  "data": [
    {"molecule": "CNc1nc(-c2ccc3c(N)n[nH]c3c2)cc(N2C[C@@H](C(=O)NC3CCCCC3)CC[C@H]2C)n1", "values": [
      {"measurement": "residual activity", "setting": "MAP3K9 (human); compound 0.01 µM", "result": 110, "unit": "%"},
      {"measurement": "residual activity", "setting": "MAP3K9 (human); compound 0.1 µM", "result": 111, "unit": "%"},
      {"measurement": "residual activity", "setting": "MAP3K9 (human); compound 1.0 µM", "result": 93, "unit": "%"},
      {"measurement": "residual activity", "setting": "MAP3K9 (human); compound 10.0 µM", "result": 78, "unit": "%"},
      {"measurement": "residual activity", "setting": "TTK (human); compound 0.01 µM", "result": 90, "unit": "%"},
      {"measurement": "residual activity", "setting": "TTK (human); compound 0.1 µM", "result": 98, "unit": "%"},
      {"measurement": "residual activity", "setting": "TTK (human); compound 1.0 µM", "result": 84, "unit": "%"},
      {"measurement": "residual activity", "setting": "TTK (human); compound 10.0 µM", "result": 61, "unit": "%"},
      {"measurement": "residual activity", "setting": "MAPK9 (human); compound 0.01 µM", "result": 117, "unit": "%"},
      {"measurement": "residual activity", "setting": "MAPK9 (human); compound 0.1 µM", "result": 126, "unit": "%"},
      {"measurement": "residual activity", "setting": "MAPK9 (human); compound 1.0 µM", "result": 104, "unit": "%"},
      {"measurement": "residual activity", "setting": "MAPK9 (human); compound 10.0 µM", "result": 114, "unit": "%"},
      {"measurement": "residual activity", "setting": "MAP3K5 (human); compound 1.0 µM", "result": 106, "unit": "%"},
      {"measurement": "residual activity", "setting": "MAP3K5 (human); compound 10.0 µM", "result": 99, "unit": "%"},
      {"measurement": "residual activity", "setting": "GSK3B (human); compound 0.01 µM", "result": 108, "unit": "%"},
      {"measurement": "residual activity", "setting": "GSK3B (human); compound 0.1 µM", "result": 111, "unit": "%"},
      {"measurement": "residual activity", "setting": "GSK3B (human); compound 1.0 µM", "result": 106, "unit": "%"},
      {"measurement": "residual activity", "setting": "MARK4 (human); compound 0.01 µM", "result": 106, "unit": "%"},
      {"measurement": "residual activity", "setting": "MARK4 (human); compound 0.1 µM", "result": 114, "unit": "%"},
      {"measurement": "residual activity", "setting": "MARK4 (human); compound 1.0 µM", "result": 99, "unit": "%"},
      {"measurement": "residual activity", "setting": "MARK4 (human); compound 10.0 µM", "result": 103, "unit": "%"},
      {"measurement": "residual activity", "setting": "PKN2 (human); compound 0.01 µM", "result": 90, "unit": "%"},
      {"measurement": "residual activity", "setting": "PKN2 (human); compound 0.1 µM", "result": 102, "unit": "%"},
      {"measurement": "residual activity", "setting": "PKN2 (human); compound 1.0 µM", "result": 118, "unit": "%"},
      {"measurement": "residual activity", "setting": "PKN2 (human); compound 10.0 µM", "result": 81, "unit": "%"},
      {"measurement": "residual activity", "setting": "TAOK1 (human); compound 1.0 µM", "result": 86, "unit": "%"},
      {"measurement": "residual activity", "setting": "TAOK1 (human); compound 10.0 µM", "result": 96, "unit": "%"},
      {"measurement": "residual activity", "setting": "AURKA (human); compound 0.01 µM", "result": 112, "unit": "%"},
      {"measurement": "residual activity", "setting": "AURKA (human); compound 0.1 µM", "result": 115, "unit": "%"},
      {"measurement": "residual activity", "setting": "AURKA (human); compound 1.0 µM", "result": 98, "unit": "%"},
      {"measurement": "residual activity", "setting": "AURKA (human); compound 10.0 µM", "result": 89, "unit": "%"},
      {"measurement": "residual activity", "setting": "MAPK10 (human); compound 0.01 µM", "result": 106, "unit": "%"},
      {"measurement": "residual activity", "setting": "MAPK10 (human); compound 0.1 µM", "result": 106, "unit": "%"},
      {"measurement": "residual activity", "setting": "MAPK10 (human); compound 10.0 µM", "result": 97, "unit": "%"},
      {"measurement": "residual activity", "setting": "[1]; compound 0.01 µM", "result": 125, "unit": "%"},
      {"measurement": "residual activity", "setting": "[1]; compound 0.1 µM", "result": 118, "unit": "%"},
      {"measurement": "residual activity", "setting": "[1]; compound 1.0 µM", "result": 107, "unit": "%"},
      {"measurement": "residual activity", "setting": "[1]; compound 10.0 µM", "result": 56, "unit": "%"},
      {"measurement": "residual activity", "setting": "YES1 (human); compound 0.01 µM", "result": 122, "unit": "%"},
      {"measurement": "residual activity", "setting": "YES1 (human); compound 0.1 µM", "result": 119, "unit": "%"},
      {"measurement": "residual activity", "setting": "YES1 (human); compound 1.0 µM", "result": 106, "unit": "%"},
      {"measurement": "residual activity", "setting": "YES1 (human); compound 10.0 µM", "result": 98, "unit": "%"},
      {"measurement": "residual activity", "setting": "HIPK1 (human); compound 0.01 µM", "result": 102, "unit": "%"},
      {"measurement": "residual activity", "setting": "HIPK1 (human); compound 0.1 µM", "result": 105, "unit": "%"},
      {"measurement": "residual activity", "setting": "HIPK1 (human); compound 1.0 µM", "result": 94, "unit": "%"},
      {"measurement": "residual activity", "setting": "HIPK1 (human); compound 10.0 µM", "result": 112, "unit": "%"},
      {"measurement": "residual activity", "setting": "SYK (human); compound 0.01 µM", "result": 109, "unit": "%"},
      {"measurement": "residual activity", "setting": "SYK (human); compound 0.1 µM", "result": 105, "unit": "%"},
      {"measurement": "residual activity", "setting": "SYK (human); compound 1.0 µM", "result": 104, "unit": "%"},
      {"measurement": "residual activity", "setting": "SYK (human); compound 10.0 µM", "result": 105, "unit": "%"},
      {"measurement": "residual activity", "setting": "HIPK2 (human); compound 0.01 µM", "result": 119, "unit": "%"},
      {"measurement": "residual activity", "setting": "HIPK2 (human); compound 0.1 µM", "result": 124, "unit": "%"},
      {"measurement": "residual activity", "setting": "HIPK2 (human); compound 1.0 µM", "result": 95, "unit": "%"},
      {"measurement": "residual activity", "setting": "HIPK2 (human); compound 10.0 µM", "result": 113, "unit": "%"},
      {"measurement": "residual activity", "setting": "AURKB (human); compound 0.01 µM", "result": 105, "unit": "%"},
      {"measurement": "residual activity", "setting": "AURKB (human); compound 0.1 µM", "result": 106, "unit": "%"},
      {"measurement": "residual activity", "setting": "AURKB (human); compound 1.0 µM", "result": 72, "unit": "%"},
      {"measurement": "residual activity", "setting": "AURKB (human); compound 10.0 µM", "result": 29, "unit": "%"},
      {"measurement": "residual activity", "setting": "PAK6 (human); compound 0.01 µM", "result": 108, "unit": "%"},
      {"measurement": "residual activity", "setting": "PAK6 (human); compound 0.1 µM", "result": 120, "unit": "%"},
      {"measurement": "residual activity", "setting": "PAK6 (human); compound 1.0 µM", "result": 99, "unit": "%"},
      {"measurement": "residual activity", "setting": "PAK6 (human); compound 10.0 µM", "result": 96, "unit": "%"},
      {"measurement": "residual activity", "setting": "MAPK1 (human); compound 0.01 µM", "result": 117, "unit": "%"},
      {"measurement": "residual activity", "setting": "MAPK1 (human); compound 0.1 µM", "result": 111, "unit": "%"}
    ]}
  ]
}
